In patent US10647713B2 (Nimbus Lakshmi, Inc., priority 2016, dated 2020) one finds Kd data, which are given here for 21 molecules.

Where only a bound is given, the exact number is not on record here.

human TYK2 (JH2domain-pseudokinase), sequence (P29597 556-888): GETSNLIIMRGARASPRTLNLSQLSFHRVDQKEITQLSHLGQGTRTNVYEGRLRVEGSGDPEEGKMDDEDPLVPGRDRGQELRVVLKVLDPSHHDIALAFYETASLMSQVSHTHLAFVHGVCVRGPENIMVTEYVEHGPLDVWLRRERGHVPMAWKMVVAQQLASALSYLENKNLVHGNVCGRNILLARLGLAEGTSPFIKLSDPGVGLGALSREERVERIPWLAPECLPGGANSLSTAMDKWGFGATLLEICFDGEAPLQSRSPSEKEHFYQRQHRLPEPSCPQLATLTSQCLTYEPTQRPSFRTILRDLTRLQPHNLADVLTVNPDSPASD

This assay has as its target human TYK2 (JH2domain-pseudokinase) (Homo sapiens (Human), UniProt P29597). The assay is described as follows: TYK2 JH2 Domain Binding Assay (KINOMEscan, DiscoveRx). The settings on record: 11-point dilution, duplicate. Here is the method:
Binding constants for compounds of the present invention against the JH2 domain were determined by the following protocol for a KINOMEscan® assay (DiscoveRx). A fusion protein of a partial length construct of human TYK2 (JH2domain-pseudokinase) (amino acids G556 to D888 based on reference sequence NP_003322.3) and the DNA binding domain of NFkB was expressed in transiently transfected HEK293 cells. From these HEK 293 cells, extracts were prepared in M-PER extraction buffer (Pierce) in the presence of Protease Inhibitor Cocktail Complete (Roche) and Phosphatase Inhibitor Cocktail Set II (Merck) per manufacturers' instructions. The TYK2 (JH2domain-pseudokinase) fusion protein was labeled with a chimeric double-stranded DNA tag containing the NFkB binding site (5′-GGGAATTCCC-3′) fused to an amplicon for qPCR readout, which was added directly to the expression extract (the final concentration of DNA-tag in the binding reaction is 0.1 nM).
Streptavidin-coated magnetic beads (Dynal M280) were treated with a biotinylated small molecule ligand for 30 minutes at room temperature to generate affinity resins the binding assays. The liganded beads were blocked with excess biotin and washed with blocking buffer (SeaBlock (Pierce), 1% BSA, 0.05% Tween 20, 1 mM DTT) to remove unbound ligand and to reduce nonspecific binding.
The binding reaction was assembled by combining 16 μl of DNA-tagged kinase extract, 3.8 μl liganded affinity beads, and 0.18 μl test compound (PBS/0.05% Tween 20/10 mM DTT/0.1% BSA/2 μg/ml sonicated salmon sperm DNA)]. Extracts were used directly in binding assays without any enzyme purification steps at a ≥10,000-fold overall stock dilution (final DNA-tagged enzyme concentration <0.1 nM). Extracts were loaded with DNA-tag and diluted into the binding reaction in a two step process. First extracts were diluted 1:100 in 1× binding buffer (PBS/0.05% Tween 20/10 mM DTT/0.1% BSA/2 μg/ml sonicated salmon sperm DNA) containing 10 nM DNA-tag. This dilution was allowed to equilibrate at room temperature for 15 minutes and then subsequently diluted 1:100 in 1× binding buffer. Test compounds were prepared as 111× stocks in 100% DMSO. Kds were determined using an 11-point 3-fold compound dilution series with three DMSO control points. All compounds for Kd measurements are distributed by acoustic transfer (non-contact dispensing) in 100% DMSO. The compounds were then diluted directly into the assays such that the final concentration of DMSO was 0.9%. All reactions performed in polypropylene 384-well plates. Each was a final volume of 0.02 mL. Assays were incubated with shaking for 1 hour at room temperature. Then the beads were pelleted and washed with wash buffer (1×PBS, 0.05% Tween 20) to remove displaced kinase and test compound. The washed based were re-suspended in elution buffer (1×PBS, 0.05% Tween 20, 0.5 μM non-biotinylated affinity ligand) and incubated at room temperature with shaking for 30 minutes. The kinase concentration in the eluates was measured by qPCR. qPCR reactions were assembled by adding 2.5 μL of kinase eluate to 7.5 μL of qPCR master mix containing 0.15 μM amplicon primers and 0.15 μM amplicon probe. The qPCR protocol consisted of a 10 minute hot start at 95° C., followed by 35 cycles of 95° C. for 15 seconds, 60° C. for 1 minute.
Test compounds were prepared as 111× stocks in 100% DMSO. Kds were determined using an 11-point 3-fold compound dilution series with three DMSO control points. All compounds for Kd measurements are distributed by acoustic transfer (non-contact dispensing) in 100% DMSO. The compounds were then diluted directly into the assays such that the final concentration of DMSO was 0.9%. The Kds were determined using a compound top concentration of 30,000 nM. Kd measurements were performed in duplicate.
Binding constants (Kds) were calculated with a standard dose-response curve using the Hill equation: […]
The Hill Slope was set to −1. […]
What is called Kd is the equilibrium constant for the complex coming apart. Read a high Kd as a looser complex. For the molecule `CN(c1cc(-c2cnn(C)c2)ccc1Nc1cc(NC(=O)[C@@H]2C[C@@H]2F)nc2[nH]c(C(F)F)nc12)S(C)(=O)=O` (stereo in doubt) [Compound I-207], the Kd was in the range of 0.1 to 0.5 nM.

`COc1c(Nc2cc(NC(=O)[C@@H]3C[C@@H]3F)nc3[nH]c(C(F)F)nc23)cccc1-c1ncn(C)n1` (stereo in doubt) [I-213, N-(2-(difluoromethyl)-7-((2-methoxy-3-(1-methyl-1H-1,2,4-triazol-3-yl)phenyl)amino)-3H-imidazo[4,5-b]pyridin-5-yl)-2-fluorocyclopropane-1-carboxamide] displayed a dissociation constant (Kd) of 0.1 to 0.5 nM.

Regarding `CN(c1cc(-c2cnn(C)c2)ccc1Nc1cc(NC(=O)[C@@H]2C[C@@H]2F)nc2[nH]c(C(F)F)nc12)S(C)(=O)=O` (stereo in doubt) [I-235, (1S,2S)—N-(2-(difluoromethyl)-7-((4-(1-methyl-1H-pyrazol-4-yl)-2-(N-methylmethylsulfonamido)phenyl)amino)-3H-imidazo[4,5-b]pyridin-5-yl)-2-fluorocyclopropane-1-carboxamide], the equilibrium dissociation constant (Kd) is below 0.1 nM.

Molecule `Cc1nc2c(Nc3ccc(C4CCCOC4)cc3S(C)(=O)=O)cc(NC(=O)C3CC3)nc2[nH]1` (stereo in doubt) [I-254, (R)—N-(2-methyl-7-((2-(methylsulfonyl)-4-(tetrahydro-2H-pyran-3-yl)phenyl)amino)-3H-imidazo[4,5-b]pyridin-5-yl)cyclopropanecarboxamide] had an equilibrium dissociation constant (Kd) of 0.5 to 1 nM.

Consider `Cc1nc2c(Nc3ccc([C@@H]4CCCCO4)cc3S(C)(=O)=O)cc(NC(=O)[C@@H]3CC3(F)F)nc2[nH]1` (stereo in doubt) [I-324, 2,2-difluoro-N-(2-methyl-7-((2-(methylsulfonyl)-4-((R)-tetrahydro-2H-pyran-2-yl)phenyl)amino)-3H-imidazo[4,5-b]pyridin-5-yl)cyclopropane-1-carboxamide], for which the Kd was in the range of 1 to 10 nM.

Molecule `COc1c(Nc2cc(NC(=O)C3C[C@@H]3F)nc3[nH]c(C)nc23)cccc1-c1ncn(C)n1` (stereo in doubt) [I-368, 2-fluoro-N-(7-((2-methoxy-3-(1-methyl-1H-1,2,4-triazol-3-yl)phenyl)amino)-2-methyl-3H-imidazo[4,5-b]pyridin-5-yl)cyclopropane-1-carboxamide] registered a dissociation constant Kd of 0.5 to 1 nM.

`COc1c(Nc2cc(NC(=O)C3C[C@@H]3F)nc3[nH]c(C(F)F)nc23)cccc1-c1ncn(C)n1` (stereo in doubt) [I-374, N-(2-(difluoromethyl)-7-((2-methoxy-3-(1-methyl-1H-1,2,4-triazol-3-yl)phenyl)amino)-3H-imidazo[4,5-b]pyridin-5-yl)-2-fluorocyclopropane-1-carboxamide] gave a Kd of 1 to 10 nM.

With `CN=S(C)(=O)c1ccccc1Nc1cc(NC(=O)C2CC2)nc2[nH]c(C)nc12` (stereo in doubt) [I-548, (S)—N-(7-((2-(N,S-dimethylsulfonimidoyl)phenyl)amino)-2-methyl-3H-imidazo[4,5-b]pyridin-5-yl)cyclopropanecarboxamide], the Kd fell in the range of 0.1 to 0.5 nM.

On to `Cc1nc2c(Nc3ccc(C4CCCCO4)cc3S(C)(=O)=O)cc(Nc3cc4n(n3)CCOC4)nc2[nH]1` (stereo in doubt) [I-586, (R)—N5-(6,7-dihydro-4H-pyrazolo[5,1-c][1,4]oxazin-2-yl)-2-methyl-N7-(2-(methylsulfonyl)-4-(tetrahydro-2H-pyran-2-yl)phenyl)-3H-imidazo[4,5-b]pyridine-5,7-diamine], for which the Kd lay in the range of 0.1 to 0.5 nM.

For the molecule `CS(=O)(=O)c1cc(C2COCCO2)ccc1Nc1cc(NC(=O)C2CC2)nc2[nH]c(C(F)F)nc12` (stereo in doubt) [I-613, (R)—N-(7-((4-(1,4-dioxan-2-yl)-2-(methylsulfonyl)phenyl)amino)-2-(difluoromethyl)-3H-imidazo[4,5-b]pyridin-5-yl)cyclopropanecarboxamide], the Kd lay within 0.1 to 0.5 nM.

Take `CS(=O)(=O)c1cc(C2COCCO2)ccc1Nc1cc(NC(=O)C2CC2)nc2[nH]c(C(F)F)nc12` (stereo in doubt) [I-614, (S)—N-(7-((4-(1,4-dioxan-2-yl)-2-(methylsulfonyl)phenyl)amino)-2-(difluoromethyl)-3H-imidazo[4,5-b]pyridin-5-yl)cyclopropanecarboxamide]: the Kd is 0.1 to 0.5 nM.

Regarding `COc1c(Nc2cc(NC(=O)C3CC3)nc3[nH]cnc23)cccc1-c1ncn(C)n1` [I-1, N-(7-((2-methoxy-3-(1-methyl-1H-1,2,4-triazol-3-yl)phenyl)amino)-3H-imidazo[4,5-b]pyridin-5-yl)cyclopropanecarboxamide], the Kd was in the range of 0.1 to 0.5 nM.

In turn, `COc1c(Nc2cc(Nc3cc(C)c(F)cn3)nc3[nH]cnc23)cccc1-c1ncn(C)n1` [I-2, N5-(5-fluoro-4-methylpyridin-2-yl)-N7-(2-methoxy-3-(1-methyl-1H-1,2,4-triazol-3-yl)phenyl)-3H-imidazo[4,5-b]pyridine-5,7-diamine] registered a Kd of 0.5 to 1 nM.

Turning to `COc1c(Nc2cc(Nc3cc(C)nc(C)n3)nc3[nH]cnc23)cccc1-c1ncn(C)n1` [I-3, N5-(2,6-dimethylpyrimidin-4-yl)-N7-(2-methoxy-3-(1-methyl-1H-1,2,4-triazol-3-yl)phenyl)-3H-imidazo[4,5-b]pyridine-5,7-diamine], the equilibrium dissociation constant (Kd) is 0.1 to 0.5 nM.

Take `COc1c(Nc2cc(Nc3ccc(C)nn3)nc3[nH]cnc23)cccc1-c1ncn(C)n1` [I-4, N7-(2-methoxy-3-(1-methyl-1H-1,2,4-triazol-3-yl)phenyl)-N5-(6-methylpyridazin-3-yl)-3H-imidazo[4,5-b]pyridine-5,7-diamine]: the equilibrium dissociation constant (Kd) lay in the range of 0.1 to 0.5 nM.

In turn, `COc1c(Nc2cc(Nc3cc(CO)ccn3)nc3[nH]cnc23)cccc1-c1ncn(C)n1` [I-5, (2-((7-((2-methoxy-3-(1-methyl-1H-1,2,4-triazol-3-yl)phenyl)amino)-3H-imidazo[4,5-b]pyridin-5-yl)amino)pyridin-4-yl)MeOH] yielded a Kd of 0.5 to 1 nM.

In the case of `COc1c(Nc2cc(Nc3ccc(N4CCCCC4)cn3)nc3[nH]cnc23)cccc1-c1ncn(C)n1` [I-6, N7-(2-methoxy-3-(1-methyl-1H-1,2,4-triazol-3-yl)phenyl)-N5-(5-(piperidin-1-yl)pyridin-2-yl)-3H-imidazo[4,5-b]pyridine-5,7-diamine], the dissociation constant Kd lay within 0.5 to 1 nM.

`COc1c(Nc2cc(Nc3ccc(N4CCOCC4)cn3)nc3[nH]cnc23)cccc1-c1ncn(C)n1` [I-7, N7-(2-methoxy-3-(1-methyl-1H-1,2,4-triazol-3-yl)phenyl)-N5-(5-morpholinopyridin-2-yl)-3H-imidazo[4,5-b]pyridine-5,7-diamine] registered a Kd of 0.1 to 0.5 nM.

Regarding `COc1c(Nc2cc(Nc3ccn(C)n3)nc3[nH]cnc23)cccc1-c1ncn(C)n1` [I-8, N7-(2-methoxy-3-(1-methyl-1H-1,2,4-triazol-3-yl)phenyl)-N5-(1-methyl-1H-pyrazol-3-yl)-3H-imidazo[4,5-b]pyridine-5,7-diamine], the Kd was in the range of 1 to 10 nM.

`COc1c(Nc2cc(NC(=O)C3CC3)nc3[nH]c(C4CC4)nc23)cccc1-c1ncn(C)n1` [I-9, N-(2-cyclopropyl-7-((2-methoxy-3-(1-methyl-1H-1,2,4-triazol-3-yl)phenyl)amino)-3H-imidazo[4,5-b]pyridin-5-yl)cyclopropanecarboxamide] came in with a Kd above 10 nM.

As for `COc1c(Nc2cc(NC(=O)C3CC3)nc3[nH]c(CO)nc23)cccc1-c1ncn(C)n1` [I-10, N-(2-(hydroxymethyl)-7-((2-methoxy-3-(1-methyl-1H-1,2,4-triazol-3-yl)phenyl)amino)-3H-imidazo[4,5-b]pyridin-5-yl)cyclopropanecarboxamide], the Kd fell in the range of 1 to 10 nM.
